Results: US4675405A, “Quinoline compounds as antiallergic and antithrombotic agents” (American Home Products Corporation, priority 1986, dated 1987)

Tests used:
[1] = tested on: 5-HETE synthesis (lipoxygenase); assay: inhibition of 5-HETE synthesis by rat glycogen-elicited polymorphonuclear leukocytes; type: cell-based; settings: for IC50: Leukocyte, rat PMN, A23187 + [14C]arachidonic acid, read-out: 50% Inhibitory Concentration (IC50) 5-HETE
Experimental: (§1) This is especially true with respect to 5,12-diHETE, which is also denoted as LTB4 [see Ford-Hitchinson, J. Roy. Soc. Med., 74, 831 (1981)]. The assay of this Example measures the ability of the compounds of the inventin to inhibit the synthesis of 5HETE and LTB4 by rat glycogen-elicited polymorphonuclear leukocytes.
(§2) Peritoneal PMN are obtained from female Wistar rats (150-250 g) that received an i.p. injection of 6% glycogen (10 ml). After 24 hours, rats are killed by CO2 asphyxiation and peritoneal cells are harvested by peritoneal lavage using Ca^++ and Mg^++ free Hanks' balanced salt solution (HBSS). The peritoneal exudate is centrifuged at 400 g for 10 minutes. After centrifugation, the lavaged fluid is removed and the cell pellet is resuspended in HBSS containing Ca^++ and Mg^++ and 10 mM L-cysteine at a concentration of 2×10^7 cells/ml. To 1 ml portions of cell suspension, test drugs or vehicle are added and incubated at 37° C. for 10 minutes. Following this preincubation, the calcium ionophore (10 μM), A23187, is added together with 0.5 μCi [^14 C] arachidonic acid and further incubated for 10 minutes. The reaction is stopped by the addition of ice cold water (3 ml) and acidifying to pH 3.5. Lipoxygenase products are then extracted twice into diethyl ether. The pooled ether extracts are evaporated to dryness under nitrogen and the residue is redissolved in a small volume of methanol and spotted on aluminum backed pre-coated thin layer chromatographic plates. The samples are them co-chromatographed with authentic reference 5-HETE, 12-HETE and 5,12-diHETE in the solvent system--hexane:ether:acetic acid (50:50:3). After chromatography, the areas associated with 5-HETE and 5,12-diHETE standards are identified by autoradiography, cut out and quantitated by liquid scintillation.
Results are expressed as % inhibition of [^14 C]5-HETE and [^14 C]LTB4 (5,12-HETE)synthesis. [formula]
Testing compounds of the invention in this assay and using the antioxident 3-amino-1-[m-(trifluoromethyl)phenyl]-2-pyrazoline (BW755C) as a standard, the following results are obtained.

[2] = tested on: LTB4 synthesis (lipoxygenase); assay: inhibition of LTB4 (5,12-diHETE) synthesis by rat glycogen-elicited polymorphonuclear leukocytes; type: cell-based; settings: Leukocyte; rat PMN, A23187 + [14C]arachidonic acid; read-out: 50% Inhibitory Concentration (IC50) LTB4
Experimental: as §1
as §2, with “The reaction is stopped by the addition of ice cold water (3 ml) and acidifying to pH 3.5. Lipoxygenase products are then extracted twice into diethyl ether. The pooled ether extracts are evaporated to dryness under nitrogen and the residue is redissolved in a small volume of methanol and spotted on aluminum backed pre-coated thin layer chromatographic plates. The samples are them co-chromatographed with authentic reference 5-HETE, 12-HETE and 5,12-diHETE in the solvent system--hexane:ether:acetic acid (50:50:3).” left out
(§3) Results are expressed as % inhibition of [^14 C]5-HETE and [^14 C]LTB4 (5,12-HETE)synthesis. […]

[3] = tested on: TxB2 synthesis (cyclooxygenase); assay: inhibition of synthesis of the cyclooxygenase oxidation product TxB2 by rat PMN; type: cell-based
Experimental: as §2
The procedure of Example 5 is also employed for the determination of the ability of the compounds of the invention to inhibit the synthesis of the arachidonic acid cyclooxygenase oxidation product TxB2.
In this assay, the procedure of Example 5 is carried out as described. However, in order to determine cyclooxygenase activity, the samples are cochromatographed with authentic reference TxB2 in the solvent system ethyl acetate:formic acid (80:1) and the upper phase of ethyl acetate:isoctane:acetic acid:water (110:50:20:100). After chromatography, the areas associated with TxB2 standard are identified by autoradiography, cut out and quantitated by liquid scintillation techniques.
The results are calculated as in Example 5.

[4] = tested on: LTD4 induced bronchospasm; assay: in vivo inhibition of LTD4 induced bronchospasm in guinea pigs; set-up: species or system guinea pig; settings: for % Inhibition (Statistical Average), Overflow Volume at 1 min. / % Inhibition (Statistical Average), Overflow Volume at 3 min. / % Inhibition (Statistical Average), Overflow Volume at 5 min.: 10 minutes before LTD4
Experimental: The assay of this Example measures the in vivo ability of the compounds of the invention to inhibit the bronchospasm induced in guinea pigs by the exogenously administered leukotrienes C4 and/or D4. This assay is essentially a measure of the SRS-A antagonist properties of the compounds tested.
Male Hartley strain guinea pigs (350-600 g) are anesthetized with pentobarbital sodium (50 mg/kg, i.p.). The jugular vein is cannulated for injection of drugs and the carotid artery for monitoring blood pressure. The trachea is cannulated for artificial ventilation by a miniature Starling pump and for indirect measurement of respiratory volume changes as described infra. Additional pentobarbital sodium (15 mg/kg, i.v.) is administered to arrest spontaneous respiration. Submaximal bronchoconstrictor responses are established in control animals by varying the dose-levels of leukotriene. Intravenous dose-levels for LTC4 range from 1 to 2 μg/kg and for LTD4 the range is from 0.3 to 1 μg/kg. The aerosol bronchoprovocation dose for LTC4 is generated from 1.6 μM solution and for LTD4 from a 2.0 μM solution.
Test drugs are administered either intravenously, intragastrically, by aerosol or orally at 1 or 10 minutes before induction of bronchospasm by administration of either LTC4 or LTD4 at the predetermined dose-levels. Aerosols of soluble drugs or leukotrienes are produced in-line for 10 seconds only by actuation of an ultrasonic nebulizer (Monaghan). Aerosolized drug dosage is expressed in terms of solution concentration and by a fixed aerosol exposure time (approximately 10 seconds). Control animals receive saline in place of drug.
(§4) Respiratory volume changes are determined by a calibrated piston whose travel is recorded, via a linear transducer, on a Beckman Dynograph recorder. Maximal bronchoconstrictor volume is determined by clamping off the trachea at the end of the experiment. Overflow volumes at 1, 3 and 5 minutes are obtained from the recorded charts.
The overflow volume at 1, 3 and 5 minutes is expressed as a percentage of maximal bronchoconstriction. Combined group values are used from each of these time intervals to determine the inhibitory effect of drugs. [formula] Students t-test for unpaired data is used to determine statistical significance. Dose reponse curves are generated and ED50 doses are interpolated from the regression lines.
Results for compounds of the invention in this assay, using LTD4 for induction of bronchospasm, are given below:
Two other compounds of this invention are tested in this assay and the results are expressed based on the following calculations which employ the values obtained for the overflow volumes at 1, 3 and 5 minutes:
Area under the volume overflow curve (AUC) is estimated, using the overflow values at 1, 3 and 5 minutes, and expressed as a percentage of the maximal overflow AUC (equation 1): [formula] Drug effects are reported as percent inhibition of % max AUC values obtained from appropriate control animals (equation 2): [formula]
Student's t-test for unpaired data is used to determine statistical significance (p<0.05). IC50 values can also be determined by inverse prediction from linear regression lines through points between 10 and 90% inhibition.

[5] = tested on: 5-HETE and LTB4 synthesis (lipoxygenase); assay: inhibition of synthesis of lipoxygenase products 5-HETE and LTB4 by rat PMN (product not separately stated); type: cell-based
Experimental: as §1
as §2, with “The reaction is stopped by the addition of ice cold water (3 ml) and acidifying to pH 3.5. Lipoxygenase products are then extracted twice into diethyl ether. The pooled ether extracts are evaporated to dryness under nitrogen and the residue is redissolved in a small volume of methanol and spotted on aluminum backed pre-coated thin layer chromatographic plates. The samples are them co-chromatographed with authentic reference 5-HETE, 12-HETE and 5,12-diHETE in the solvent system--hexane:ether:acetic acid (50:50:3).” left out
as §3

[6] = tested on: ovalbumin induced bronchospasm; assay: in vivo inhibition of ovalbumin induced bronchospasm mediated by endogenous mediators in sensitized guinea pigs; set-up: species or system guinea pig; settings: 10 minutes before i.v. ovalbumin challenge
Experimental: The assay of this Example measures the in vivo ability of the compounds of the invention to inhibit the bronchospasm induced in guinea pigs by endogenous mediators of the bronchoconstriction.
Male Hartley strain guinea pigs weighing 250-350 g are sensitized to chicken ovalbumin (OA) (10 mg i.p.) on days 1 and 3 and used starting on day 26. The animals are anesthetized with pentobarbital sodium (50 mg/kg, i.p.), bilateral vagotomy is performed, and the jugular vein is cannulated for injection of drugs and the carotid artery for monitoring blood pressure. The trachea is cannulated for artificial ventilation by miniature Starling pump and for indirect measurement of respiratory volume changes as described, infra. Succinylcholine (2 mg/kg, i.v.) is administered to arrest spontaneous respiration. […]
as §4, with “volumes at minutes 1, 3” for “volumes at 1, 3”, “and 5 are obtained” for “and 5 minutes are obtained”
Area under the volume overflow curve (AUC) is estimated, using the overflow values at 1, 3 and 5 minutes, and expressed as a percentage of the maximal overflow AUC (equation 1): [formula] […]

`NC1=NN(c2cccc(C(F)(F)F)c2)CC1` [BW755C, 3-amino-1-[m-(trifluoromethyl)phenyl]-2-pyrazoline, reference compound] showed an IC50 [1] of 43 µM and an IC50 [2] of 30 µM.

With `CCS(=O)(=O)Nc1cccc(OCc2ccc3ccccc3n2)c1` [Example 2A, N-[3-[(2-Quinolinyl)methoxy]phenyl]ethane sulfonamide] the “% Inhibition at 100 μm (first value, 5-HETE by column order)” value ([1]; 100 μm) was 93%, the “% Inhibition at 100 μm (TxB2 synthesis)” value [3] was 56% and the “% Inhibition (Statistical Average), Overflow Volume at 1 min.” value (from here on “% Inhibition … at 1 min.”) ([4]; 50 mg/kg intraduodenal) was 88%. For the same compound, the “% Inhibition (Statistical Average), Overflow Volume at 3 min.” value (shortened to “% Inhibition … at 3 min.”) ([4]; 50 mg/kg intraduodenal) was 86% and the “% Inhibition (Statistical Average), Overflow Volume at 5 min.” value (“% Inhibition … at 5 min.” below) ([4]; 50 mg/kg intraduodenal) was 81%.

For `CCCCS(=O)(=O)Nc1cccc(OCc2ccc3ccccc3n2)c1` [Example 2B, N-[3-[(2-Quinolinyl)methoxy]phenyl]-1-butane sulfonamide], the IC50 [1] was 1.6 µM, the IC50 [2] was 2.1 µM and the “% Inhibition at 100 μm (TxB2 synthesis)” value [3] was 73%. The “% Inhibition … at 1 min.” value ([4]; 50 mg/kg intraduodenal) was 08%, the “% Inhibition … at 3 min.” value ([4]; 50 mg/kg intraduodenal) was 41% and the “% Inhibition … at 5 min.” value ([4]; 50 mg/kg intraduodenal) was 41%.

`CCS(=O)(=O)Nc1cccc(OCc2ccc3ccccc3c2)c1` [Example 2C, N-[3-[(2-Naphthalenyl)methoxy]phenyl]ethane sulfonamide] was tested, and the “% Inhibition … at 1 min.” value ([4]; 50 mg/kg intraduodenal) was 61%, the “% Inhibition … at 3 min.” value ([4]; 50 mg/kg intraduodenal) was 41% and the “% Inhibition … at 5 min.” value ([4]; 50 mg/kg intraduodenal) was 53%.

`CCS(=O)(=O)Nc1cccc(OCc2cc3ccccc3s2)c1` [Example 2D, N-[3-[(2-Benzo[b]thienyl)methoxy]phenyl]ethane sulfonamide] was tested, and the “>50% Inhibitory at 50 μm” value [5] was “+ (inhibition of >50%)”, the “50% Inhibition at 50 μm (TxB2 synthesis)” value [3] was “+ (inhibition of >50%)” and the “% Inhibition of Max AUC” value ([4]; 50 mg/kg intraduodenal, 10 minutes before induction of bronchospasm) was 13%.

`CCCS(=O)(=O)Nc1cccc(OCc2cc3ccccc3s2)c1` [Example 2E, N-[3-[(2-Benzo[b]thienyl]methoxy]phenyl]-1-propane sulfonamide] was tested, and the “>50% Inhibitory at 50 μm” value [5] was “+ (inhibition of >50%)” and the “50% Inhibition at 50 μm (TxB2 synthesis)” value [3] was “+ (inhibition of >50%)”.

`O=S(=O)(Nc1cccc(OCc2ccc3ccccc3n2)c1)C(F)(F)F` [Example 3, N-[3-[(2-Quinolinyl)methoxy]phenyl]trifluoromethane sulfonamide] was tested, and the “% Inhibition” value ([4]; 25 mg/kg administered intragastrically) was 98%, the ED50 ([4]; Cavia porcellus, po, administered intragastrically, LTD4 induced bronchospasm, read-out: IC50 (the source's name)) was 0.1 mg/kg and the “% Inhibition” value ([6]; 25 mg/kg intragastric) was 97%. The ED50 ([6]; Cavia porcellus, 10 min, intragastric, read-out: IC50 (the source's name)) was 0.6 mg/kg.
